Measured values published in patent US9492471B2, “Methods of treating a disease or disorder associated with Bruton'S Tyrosine Kinase” (Celgene Avilomics Research, Inc., priority 2013, dated 2016).
Where two headings read alike, the source gives them in different places.

Columns and labels:
Test in all cases: HotSpot kinase profiling
Format in all cases: biochemical
[1] = biological target: T1, GRK3 (Homo sapiens, UniProt P35626)
T1 construct: purchased Reaction Biology Corp
T1 sequence (P35626 1-688): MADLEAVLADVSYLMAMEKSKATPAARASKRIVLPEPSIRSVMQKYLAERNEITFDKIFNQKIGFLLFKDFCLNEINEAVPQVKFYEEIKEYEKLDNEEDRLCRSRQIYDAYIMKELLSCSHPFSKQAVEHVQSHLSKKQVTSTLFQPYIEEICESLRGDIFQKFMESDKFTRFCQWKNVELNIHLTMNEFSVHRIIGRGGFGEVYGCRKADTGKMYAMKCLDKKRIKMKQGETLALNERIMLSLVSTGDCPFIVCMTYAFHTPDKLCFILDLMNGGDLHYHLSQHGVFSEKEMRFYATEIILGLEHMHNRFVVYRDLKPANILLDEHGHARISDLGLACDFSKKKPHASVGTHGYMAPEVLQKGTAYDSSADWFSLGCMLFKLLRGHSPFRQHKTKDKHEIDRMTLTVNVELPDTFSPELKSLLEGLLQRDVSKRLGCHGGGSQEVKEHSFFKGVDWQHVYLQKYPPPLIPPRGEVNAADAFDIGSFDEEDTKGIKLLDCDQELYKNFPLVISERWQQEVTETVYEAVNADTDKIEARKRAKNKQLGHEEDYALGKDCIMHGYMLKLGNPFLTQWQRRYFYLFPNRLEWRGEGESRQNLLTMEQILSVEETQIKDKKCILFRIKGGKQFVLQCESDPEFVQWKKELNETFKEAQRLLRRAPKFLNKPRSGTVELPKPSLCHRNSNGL
In short: (§1)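 Radio-isotope P81 filtration format. Substrate + required cofactors in reaction buffer, kinase added, 2 h RT. Stop, wash with 0.1% phosphoric acid, detect. % inhibition vs DMSO; mean of duplicates where repeated.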

[2] = biological target: T2, FGFR2 (Homo sapiens, UniProt P21802)
T2 construct: purchased Reaction Biology Corp
In short: as §1

[3] = biological target: T3, PAK1 (Homo sapiens, UniProt Q13153)
T3 construct: purchased Reaction Biology Corp
In short: as §1

[4] = biological target: T4, CSK (Homo sapiens, UniProt P41240)
T4 construct: purchased Reaction Biology Corp
In short: as §1

[5] = biological target: T5, STK32C/YANK3 (Homo sapiens, UniProt Q86UX6)
T5 construct: purchased Reaction Biology Corp
In short: as §1

[6] = biological target: T6, MEK3 (Homo sapiens, UniProt P46734)
T6 construct: purchased Reaction Biology Corp
T6 sequence (P46734 1-347): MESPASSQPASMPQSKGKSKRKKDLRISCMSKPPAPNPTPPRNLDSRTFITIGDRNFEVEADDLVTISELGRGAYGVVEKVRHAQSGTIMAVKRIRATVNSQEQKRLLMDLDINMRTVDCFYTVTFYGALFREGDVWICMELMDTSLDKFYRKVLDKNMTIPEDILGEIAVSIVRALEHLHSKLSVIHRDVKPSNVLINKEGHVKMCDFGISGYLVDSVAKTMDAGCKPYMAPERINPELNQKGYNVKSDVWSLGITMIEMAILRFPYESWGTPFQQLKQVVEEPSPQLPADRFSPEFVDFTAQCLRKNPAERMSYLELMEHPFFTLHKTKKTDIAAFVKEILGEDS
In short: as §1

[7] = biological target: T7, LYN B (Homo sapiens, UniProt P07948)
T7 construct: purchased Reaction Biology Corp
In short: as §1

[8] = biological target: T8, CK1epsilon (Homo sapiens, UniProt P49674)
T8 construct: purchased Reaction Biology Corp
In short: as §1

[9] = biological target: T9, SNARK/NUAK2 (Homo sapiens, UniProt Q9H093)
T9 construct: purchased Reaction Biology Corp
T9 sequence (Q9H093 1-628): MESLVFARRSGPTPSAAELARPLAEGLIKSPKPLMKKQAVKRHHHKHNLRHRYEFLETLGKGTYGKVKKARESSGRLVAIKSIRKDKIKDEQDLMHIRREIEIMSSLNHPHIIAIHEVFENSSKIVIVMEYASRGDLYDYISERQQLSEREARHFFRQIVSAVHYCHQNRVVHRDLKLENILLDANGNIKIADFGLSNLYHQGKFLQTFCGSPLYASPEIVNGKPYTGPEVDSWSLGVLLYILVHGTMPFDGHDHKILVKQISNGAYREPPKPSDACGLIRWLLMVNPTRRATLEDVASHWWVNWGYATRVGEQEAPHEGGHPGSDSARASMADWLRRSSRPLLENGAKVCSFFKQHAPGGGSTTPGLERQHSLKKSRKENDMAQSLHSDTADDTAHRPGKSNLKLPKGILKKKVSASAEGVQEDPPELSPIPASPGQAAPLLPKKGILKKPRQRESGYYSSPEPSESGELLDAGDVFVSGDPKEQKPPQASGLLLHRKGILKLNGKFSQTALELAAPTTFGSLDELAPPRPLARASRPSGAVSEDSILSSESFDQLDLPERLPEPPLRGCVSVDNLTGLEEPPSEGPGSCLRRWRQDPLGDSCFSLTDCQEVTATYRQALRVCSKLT
In short: as §1

[10] = biological target: T10, ROS/ROS1 (Homo sapiens, UniProt P08922)
T10 construct: purchased Reaction Biology Corp
In short: as §1

[11] = read-out: % Enzyme Activity (relative to DMSO controls) Run 1
[12] = read-out: % Enzyme Activity (relative to DMSO controls) Run 2

T7 sequence (P07948 1-491 isoform P07948-2): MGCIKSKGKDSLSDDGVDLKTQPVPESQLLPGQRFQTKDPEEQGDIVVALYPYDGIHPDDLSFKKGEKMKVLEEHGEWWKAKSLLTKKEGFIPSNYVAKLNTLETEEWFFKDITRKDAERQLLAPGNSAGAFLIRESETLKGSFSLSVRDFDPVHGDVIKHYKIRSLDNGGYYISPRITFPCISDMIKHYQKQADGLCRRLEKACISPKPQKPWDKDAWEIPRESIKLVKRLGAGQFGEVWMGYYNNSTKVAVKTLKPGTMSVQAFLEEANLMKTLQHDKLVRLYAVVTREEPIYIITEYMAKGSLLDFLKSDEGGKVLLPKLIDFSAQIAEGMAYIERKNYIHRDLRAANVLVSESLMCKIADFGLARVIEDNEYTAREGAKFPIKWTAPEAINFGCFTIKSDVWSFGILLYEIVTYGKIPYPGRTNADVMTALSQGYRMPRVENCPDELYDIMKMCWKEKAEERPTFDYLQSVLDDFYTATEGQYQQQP
T5 sequence (Q86UX6 whole entry): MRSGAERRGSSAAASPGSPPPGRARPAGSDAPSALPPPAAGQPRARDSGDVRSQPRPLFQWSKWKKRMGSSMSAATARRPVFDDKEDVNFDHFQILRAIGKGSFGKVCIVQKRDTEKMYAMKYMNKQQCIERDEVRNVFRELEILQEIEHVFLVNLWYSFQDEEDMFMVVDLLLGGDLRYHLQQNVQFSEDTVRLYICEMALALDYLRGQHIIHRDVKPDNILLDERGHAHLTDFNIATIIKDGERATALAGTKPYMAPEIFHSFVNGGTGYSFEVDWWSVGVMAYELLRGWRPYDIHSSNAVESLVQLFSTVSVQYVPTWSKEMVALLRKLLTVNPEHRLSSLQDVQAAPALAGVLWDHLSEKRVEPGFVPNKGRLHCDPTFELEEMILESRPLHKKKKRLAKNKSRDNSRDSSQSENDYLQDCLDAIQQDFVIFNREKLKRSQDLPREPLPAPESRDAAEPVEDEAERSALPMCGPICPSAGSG
T8 sequence (P49674 whole entry): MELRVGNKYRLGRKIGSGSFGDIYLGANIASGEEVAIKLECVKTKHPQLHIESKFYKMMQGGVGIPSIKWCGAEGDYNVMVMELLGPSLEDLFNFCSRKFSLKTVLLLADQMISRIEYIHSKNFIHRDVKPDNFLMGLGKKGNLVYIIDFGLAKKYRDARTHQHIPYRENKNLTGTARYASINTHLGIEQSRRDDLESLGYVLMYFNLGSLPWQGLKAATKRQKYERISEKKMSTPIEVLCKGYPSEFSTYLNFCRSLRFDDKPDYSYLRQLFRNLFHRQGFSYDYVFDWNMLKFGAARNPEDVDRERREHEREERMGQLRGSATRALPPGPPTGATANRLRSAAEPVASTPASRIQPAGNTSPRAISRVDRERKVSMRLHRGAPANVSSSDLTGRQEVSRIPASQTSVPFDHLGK
T3 sequence (Q13153 whole entry): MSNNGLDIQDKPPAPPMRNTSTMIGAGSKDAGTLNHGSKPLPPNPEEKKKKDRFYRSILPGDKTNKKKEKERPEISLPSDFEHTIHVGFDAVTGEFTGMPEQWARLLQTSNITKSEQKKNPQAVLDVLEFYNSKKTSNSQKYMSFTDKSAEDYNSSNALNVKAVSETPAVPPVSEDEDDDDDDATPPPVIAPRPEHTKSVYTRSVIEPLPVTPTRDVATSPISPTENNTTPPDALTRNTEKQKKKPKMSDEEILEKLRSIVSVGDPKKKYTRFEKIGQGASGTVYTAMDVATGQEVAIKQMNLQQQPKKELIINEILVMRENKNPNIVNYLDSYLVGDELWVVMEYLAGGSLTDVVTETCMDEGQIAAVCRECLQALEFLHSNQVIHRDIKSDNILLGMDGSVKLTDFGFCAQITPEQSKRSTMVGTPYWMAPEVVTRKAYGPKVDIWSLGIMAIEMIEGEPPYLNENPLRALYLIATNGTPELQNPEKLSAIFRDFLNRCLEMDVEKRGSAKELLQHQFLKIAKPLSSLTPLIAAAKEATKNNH
T10 sequence (P08922 28-2347): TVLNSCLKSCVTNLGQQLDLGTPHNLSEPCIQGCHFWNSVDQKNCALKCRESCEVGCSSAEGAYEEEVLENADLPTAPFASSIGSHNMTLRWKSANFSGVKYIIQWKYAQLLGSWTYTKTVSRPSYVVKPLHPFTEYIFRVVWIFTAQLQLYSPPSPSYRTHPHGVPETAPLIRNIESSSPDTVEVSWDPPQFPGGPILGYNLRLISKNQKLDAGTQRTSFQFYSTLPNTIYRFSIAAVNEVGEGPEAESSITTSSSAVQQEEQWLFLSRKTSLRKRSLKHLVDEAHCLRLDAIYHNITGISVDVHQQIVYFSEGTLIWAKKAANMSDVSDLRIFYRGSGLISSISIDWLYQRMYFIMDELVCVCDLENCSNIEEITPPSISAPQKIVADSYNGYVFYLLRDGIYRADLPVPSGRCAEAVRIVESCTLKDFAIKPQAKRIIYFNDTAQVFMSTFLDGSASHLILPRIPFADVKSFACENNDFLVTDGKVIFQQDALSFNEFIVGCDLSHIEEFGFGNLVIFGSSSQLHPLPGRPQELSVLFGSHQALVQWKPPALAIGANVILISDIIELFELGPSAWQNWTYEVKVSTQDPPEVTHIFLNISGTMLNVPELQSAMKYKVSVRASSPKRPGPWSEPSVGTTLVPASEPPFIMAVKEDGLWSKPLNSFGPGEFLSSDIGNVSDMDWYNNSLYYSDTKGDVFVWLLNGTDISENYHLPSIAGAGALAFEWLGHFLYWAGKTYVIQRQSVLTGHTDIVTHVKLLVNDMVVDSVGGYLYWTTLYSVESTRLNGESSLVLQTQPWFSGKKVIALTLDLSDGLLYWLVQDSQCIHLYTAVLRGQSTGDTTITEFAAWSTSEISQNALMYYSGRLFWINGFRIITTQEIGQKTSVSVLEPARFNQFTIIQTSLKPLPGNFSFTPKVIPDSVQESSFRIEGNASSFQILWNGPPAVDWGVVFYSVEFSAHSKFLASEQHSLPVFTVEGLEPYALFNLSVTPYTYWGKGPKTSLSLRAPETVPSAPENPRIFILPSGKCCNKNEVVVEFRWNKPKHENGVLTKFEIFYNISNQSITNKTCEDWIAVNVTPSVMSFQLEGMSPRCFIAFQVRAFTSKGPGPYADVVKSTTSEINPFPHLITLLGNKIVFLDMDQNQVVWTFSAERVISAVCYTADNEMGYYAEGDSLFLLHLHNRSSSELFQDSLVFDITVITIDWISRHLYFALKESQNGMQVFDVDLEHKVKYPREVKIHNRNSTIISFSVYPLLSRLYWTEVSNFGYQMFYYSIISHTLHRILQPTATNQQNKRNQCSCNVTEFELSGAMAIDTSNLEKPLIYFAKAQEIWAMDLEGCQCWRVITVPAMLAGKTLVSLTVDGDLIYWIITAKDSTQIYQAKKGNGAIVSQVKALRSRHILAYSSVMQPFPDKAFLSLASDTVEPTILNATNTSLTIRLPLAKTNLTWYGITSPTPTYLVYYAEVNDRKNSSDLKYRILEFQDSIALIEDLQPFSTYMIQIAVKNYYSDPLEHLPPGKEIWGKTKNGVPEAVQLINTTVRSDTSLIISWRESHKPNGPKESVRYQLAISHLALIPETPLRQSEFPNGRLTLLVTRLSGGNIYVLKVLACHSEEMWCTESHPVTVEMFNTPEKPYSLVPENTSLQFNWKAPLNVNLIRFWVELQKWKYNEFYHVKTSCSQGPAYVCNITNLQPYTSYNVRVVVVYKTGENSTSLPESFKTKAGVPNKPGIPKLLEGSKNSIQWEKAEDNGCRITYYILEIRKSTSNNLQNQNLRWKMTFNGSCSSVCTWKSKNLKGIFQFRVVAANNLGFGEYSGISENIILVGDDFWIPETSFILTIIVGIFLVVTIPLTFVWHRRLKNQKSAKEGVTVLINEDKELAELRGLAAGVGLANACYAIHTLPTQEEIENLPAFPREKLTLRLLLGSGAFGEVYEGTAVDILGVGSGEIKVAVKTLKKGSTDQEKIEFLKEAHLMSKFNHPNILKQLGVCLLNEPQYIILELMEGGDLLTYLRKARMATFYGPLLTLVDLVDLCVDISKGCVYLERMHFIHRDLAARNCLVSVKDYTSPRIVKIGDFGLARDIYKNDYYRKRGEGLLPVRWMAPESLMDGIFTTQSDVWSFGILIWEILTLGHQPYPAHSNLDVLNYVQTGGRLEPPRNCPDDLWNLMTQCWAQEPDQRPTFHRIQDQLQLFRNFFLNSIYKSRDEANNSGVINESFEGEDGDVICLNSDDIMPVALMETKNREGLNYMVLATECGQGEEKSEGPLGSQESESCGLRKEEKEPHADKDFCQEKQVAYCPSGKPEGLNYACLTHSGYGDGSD
T4 sequence (P41240 whole entry): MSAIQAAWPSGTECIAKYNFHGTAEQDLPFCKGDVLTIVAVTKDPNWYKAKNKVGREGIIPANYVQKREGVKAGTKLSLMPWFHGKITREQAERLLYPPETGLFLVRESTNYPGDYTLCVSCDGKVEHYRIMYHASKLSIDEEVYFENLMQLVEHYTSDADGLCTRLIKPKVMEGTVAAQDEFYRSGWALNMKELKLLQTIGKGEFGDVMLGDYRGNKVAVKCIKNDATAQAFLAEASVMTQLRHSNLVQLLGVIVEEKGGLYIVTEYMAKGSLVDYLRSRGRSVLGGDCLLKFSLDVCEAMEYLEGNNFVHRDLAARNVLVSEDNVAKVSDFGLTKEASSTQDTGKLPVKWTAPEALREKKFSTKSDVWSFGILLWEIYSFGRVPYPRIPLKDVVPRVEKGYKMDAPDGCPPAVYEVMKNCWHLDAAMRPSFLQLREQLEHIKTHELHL

`C=CC(=O)Nc1cccc(Nc2nc(Nc3ccc(OCCOC)c(F)c3)ncc2F)c1` [Compound 2] gave an inhibition at 3 µM [1] of -0.2%, a remaining activity at 3 µM [1, 11] of 99.5% and a remaining activity at 3 µM [1, 12] of 101%. It also gave an inhibition at 3 µM [2] of 63.4%, a remaining activity at 3 µM [2, 11] of 37.3% and a remaining activity at 3 µM [2, 12] of 36%. It also gave an inhibition at 3 µM [3] of 2.58%, a remaining activity at 3 µM [3, 11] of 96.3% and a remaining activity at 3 µM [3, 12] of 98.6%. For the same compound, the inhibition at 3 µM [4] was 18.2%, the remaining activity at 3 µM [4, 11] was 81.7% and the remaining activity at 3 µM [4, 12] was 81.8%. The inhibition at 3 µM [5] was -6.01%, the remaining activity at 3 µM [5, 11] was 105% and the remaining activity at 3 µM [5, 12] was 107%. The inhibition at 3 µM [6] was -15.3%, the remaining activity at 3 µM [6, 11] was 117% and the remaining activity at 3 µM [6, 12] was 113%. The inhibition at 3 µM [7] was 5.7%, the remaining activity at 3 µM [7, 11] was 92.9% and the remaining activity at 3 µM [7, 12] was 95.7%. The inhibition at 3 µM [8] was -1.96%, the remaining activity at 3 µM [8, 11] was 102% and the remaining activity at 3 µM [8, 12] was 102%. The inhibition at 3 µM [9] was 15.7%, the remaining activity at 3 µM [9, 11] was 83.7% and the remaining activity at 3 µM [9, 12] was 84.9%. The inhibition at 3 µM [10] was 86.6%, the remaining activity at 3 µM [10, 11] was 13.5% and the remaining activity at 3 µM [10, 12] was 13.3%.
